# No end group written: not given here.
# T1: Flt-1 (Bos taurus, UniProt F1MDD9)
# T1 construct: we immunoprecipitated total KDR and Flt-1 from BAEC whole extracts; endogenous in cells; host or cells: BAEC (bovine aorta endothelial cells, SV40-immortalized)
# T1 sequence (F1MDD9 1-1251): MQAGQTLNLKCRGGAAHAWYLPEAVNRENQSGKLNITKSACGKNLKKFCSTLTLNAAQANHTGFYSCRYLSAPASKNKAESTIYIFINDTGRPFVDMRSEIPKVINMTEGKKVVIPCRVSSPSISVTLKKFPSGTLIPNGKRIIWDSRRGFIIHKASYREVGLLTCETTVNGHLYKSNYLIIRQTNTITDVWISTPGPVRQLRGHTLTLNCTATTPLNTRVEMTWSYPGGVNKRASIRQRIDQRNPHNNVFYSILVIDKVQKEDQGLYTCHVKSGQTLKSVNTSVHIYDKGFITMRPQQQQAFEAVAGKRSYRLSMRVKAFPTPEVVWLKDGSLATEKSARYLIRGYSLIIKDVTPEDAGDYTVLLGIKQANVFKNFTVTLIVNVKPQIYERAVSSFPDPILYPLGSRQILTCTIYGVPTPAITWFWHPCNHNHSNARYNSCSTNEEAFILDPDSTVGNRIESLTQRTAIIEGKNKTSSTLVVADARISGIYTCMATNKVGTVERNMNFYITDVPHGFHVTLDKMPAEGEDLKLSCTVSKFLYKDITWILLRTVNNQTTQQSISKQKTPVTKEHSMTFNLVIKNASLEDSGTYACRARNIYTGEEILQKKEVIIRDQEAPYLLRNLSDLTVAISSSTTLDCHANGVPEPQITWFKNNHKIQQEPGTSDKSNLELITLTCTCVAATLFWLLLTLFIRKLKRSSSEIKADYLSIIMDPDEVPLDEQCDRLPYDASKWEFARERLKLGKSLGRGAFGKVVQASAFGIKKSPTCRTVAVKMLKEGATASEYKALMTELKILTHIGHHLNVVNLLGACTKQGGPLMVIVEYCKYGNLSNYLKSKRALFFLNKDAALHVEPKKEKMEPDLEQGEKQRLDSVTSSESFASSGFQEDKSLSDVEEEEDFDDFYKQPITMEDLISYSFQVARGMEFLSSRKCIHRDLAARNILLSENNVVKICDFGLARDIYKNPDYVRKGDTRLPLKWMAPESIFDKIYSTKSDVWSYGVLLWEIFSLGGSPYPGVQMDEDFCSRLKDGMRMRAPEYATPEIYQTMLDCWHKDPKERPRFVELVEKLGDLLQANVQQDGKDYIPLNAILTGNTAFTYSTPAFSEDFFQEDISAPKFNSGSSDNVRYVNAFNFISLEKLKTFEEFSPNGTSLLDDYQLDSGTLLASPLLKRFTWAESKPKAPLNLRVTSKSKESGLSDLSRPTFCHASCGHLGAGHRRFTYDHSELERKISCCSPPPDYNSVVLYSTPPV
# Legend:
# HUVEC [1] = assay: Analysis of caspase 3 activity in HUVEC deprived of FBS; assay type: cell-based, human; conditions: VEGF 20 ng/ml plus peptide 20 ng/ml, 4 h
# Procedure: HUVE cells (1×10^4/cm2) were incubated in medium without FBS, in the absence or presence of VEGF (20 ng/ml) and QK (5 ng/ml), at 37° C. in a 5% CO2 atmosphere. After 4 h, caspase 3 activity was determined. Results are expressed as mean values of triplicates.
# HUVE cells (1×10^4/cm2) were incubated in medium without FBS, in the absence or presence of VEGF (20 ng/ml) and the indicated peptides (20 ng/ml), at 37° C. in a 5% CO2 atmosphere. After 4 h, caspase 3 activity was determined. Results are expressed as mean values of triplicates.
# (§1) Analysis of caspase 3 activity—Cells (2×104) were lysed in a buffer containing Hepes 50 mM, DTT 1 mM, EDTA 0.1 mM, NP-40 0.1%, CHAPS 0.1% and protein quantitation determined. Protein aliquots (20 μg) were incubated with 20 μM Ac-DEVD-AMC (Pharmingen, San Diego, Calif.) in a buffer containing Hepes 50 mM, DTT 1 mM, EDTA 0.1 mM, NP-40 0.1%, CHAPS 0.1%, at 37° C. for 3 h. Caspase 3 activity was determined in the cytosolic extracts by analysing the release of 7-amino-4-methylcoumarin (AMC) from N-acetyl-DEVD-AMC (Thornberry N A, et al. Nature 1992; 356:768-74); the release of AMC was monitored in a spectrofluorometer with an excitation wavelength of 380 nm and emission wavelength of 440 nm.
# as §1, with “356: 768-74);” for “356:768-74);”
# HUVEC cells = assay: Binding of fluorescein-conjugated MA peptide to HUVEC cells (flow cytometry); design: species or system human
# Procedure: HUVE cells (1×10^4/cm2) were incubated with 500 nM MA peptide conjugated with fluorescein and competed with increasing amount of VEGF at 30 min at 4° C. in the dark. Then, cell fluorescence was analyzed by flow cytometry.
# (§2) Fluorescence—Cells (3×105) were incubated with saturating amounts of FITC-conjugated and the other indicated reagents, 5 min at 4° C. in the dark. After washing with PBS, the cells were resuspended in PBS and analyzed with a FACScan (Becton Dickinson) flow cytometer.
# Binding of MA peptide to HUVEC cells. To verify that MA peptide bound to HUVEC cells, we incubated the cells with MA or a scrambled peptide conjugated with fluorescein and analyze the binding by FACS.
# ERK1/2 kinase = assay: VEGF-induced activation of ERK kinase in HUVEC (western blot); assay type: cell-based, human; conditions: VEGF 20 ng/ml plus MA 100 ng/ml, 30 min
# Procedure: (§3) (a) HUVE cells (1×10^4/cm2) were incubated whit VEGF (20 ng/ml) in the absence or presence of MA peptide (100 ng/ml), in duplicates, for 30 min. Then cell lysates were obtained and analysed in Western blot with anti-phospho-ERK antibody. b) HUVE cells (1×10^4/cm2) were incubated with VEGF (20 ng/ml) in the absence or presence of MA peptide (100 ng/ml), in triplicates, for 24 h, at 37° C. in a 5% CO2 atmosphere. Then FITC-Annexin V binding was analyzed by flow cytometry.
# Western blotting. Cell total protein lysates were prepared in sample buffer (2% sodium-dodecyl-sulphate, 10% glycerol, 2% mercaptoethanol and 60 mM Tris-HCl pH 6.8 in demineralized water) on ice. Lysates (25 μg) were run on 12% SDS-PAGE gels and electrophoretically transferred to nitrocellulose. Nitrocellulose blots were blocked with 5% BSA in Tris Buffer Saline Tween-20 (TBST) buffer [20 mM Tris-HCl (pH 7.4), 500 mM NaCl, and 0.01% Tween 20] and incubated with primary antibody in TBST-5% BSA overnight at 4° C. Immunoreactivity was detected by sequential incubation with horseradish peroxidase-conjugated secondary antibody and enhanced chemiluminescence reagents following standard protocols (Amersham Bioscience, UK).
# Inhibition of VEGF-induced activation of ERK kinase by MA peptide. […] We therefore investigated whether MA peptide binding to the cells could block ERK activation by VEGF.
# HUVEC [2] = assay: FITC-Annexin V binding of HUVEC by flow cytometry; assay type: cell-based, human; conditions: HUVEC 24 h, VEGF 20 ng/ml plus MA peptide 100 ng/ml
# Procedure: as §3, §2
# Effect of MA peptide on the appearance of annexin V+ cells in cultures with VEGF. Apoptotic cells externalize phosphatidylserine, that is bound by annexin V (Steensma D P, et al., Methods Mol. Med. 2003; 85: 323-32).
# Flt-1 = target: T1, Flt-1; assay: Flt-1 activation (immunoprecipitation, phospho-tyrosine western blot) in BAEC; assay type: cell-based, bovine; conditions: 15 minutes of exposure
# Procedure: (§4) VEGF receptors binding and activation. a) VEGF competitive binding on BAEC. 1 μg of membrane protein was plated with QK and [^125I]-VEGF (500000 cpm, 10^−10 M). b) KDR activation. After stimulation total KDR was immunoprecipitated from a whole-cell protein extracts and phospho-tyrosine was visualized by a specific antibody, anti-rabbit HRP-conjugated secondary antibody and standard chemiluminescence. c) Flt-1 activation. After stimulation total Flt-1 was immunoprecipitated from a whole-cell protein extracts and phospho-tyrosine was visualized by specific antibody, anti-rabbit HRP-conjugated secondary antibody and standard chemiluminescence.
# (§5) Western blot. Cells were plated on six-well dishes and serum starved overnight. On the next day, cells were treated with different amount of peptide in absence or in presence of VEGF165 for 15 minutes at 37° C. and then dissolved in RIPA-SDS buffer (50 mM Tris-HCl (pH 7.5), 150 mM NaCl, 1% NP-40, 0.25% deoxycholate, 9.4 mg/50 ml sodium orthovanadate, […]). In some experiments, total KDR and Flt-1 were immunoprecipitated from an equal amount of whole-cell protein extracts using protein A/G agarose beads conjugated with antibodies raised against total KDR or Flt-1 (R&D). Proteins from whole-cell extracts or immunocomplexes were resolved by PAGE and transferred to nitrocellulose. […]
# KDR = target: T2, KDR (Bos taurus, UniProt A0AAA9SPC9); assay: KDR activation (immunoprecipitation, phospho-tyrosine western blot) in BAEC; assay type: cell-based, bovine; conditions: 15 minutes of exposure
# T2 construct: we immunoprecipitated total KDR and Flt-1 from BAEC whole extracts; endogenous in cells; host or cells: BAEC (bovine aorta endothelial cells, SV40-immortalized)
# Procedure: as §4, §5
# WKY rats = assay: Ischemic hindlimb model, digital angiographies and blood flow determination; assay type: in vivo, rat; conditions: 14 days
# RB = RB phosphorylation (western blot); assay type: cell-based, bovine; conditions: 12 and 18 hours; QK 10^-6 M, VEGF165 100 ng/ml, VEGF 15 10^-6 M
# Procedure: Effect of QK on cell proliferation. a) DNA synthesis. BAEC were incubated in DMEM with [^3H]-thymidine and QK in absence or in presence of VEGF165 (100 ng/ml). After 24 hours cells were fixed and lysed. Scintillation liquid was added and [^3H]-thymidine incorporation was evaluated. b) Cell proliferation. BAEC were stimulated with the indicated amount of QK in absence or in presence of VEGF165 (100 ng/ml). Cell number was determined at 24 hours after stimulation. c) RB phosphorylation. p-RB was evaluated at 12 and 18 hours after stimulation with QK (10^-6M), VEGF165 (100 ng/ml) and VEGF 15 (10^−6 M).
# Cells proliferation assay. Cells were seeded at a density of 10000 per well in six well plates, serum starved overnight and then stimulated with QK (10-12 to 10^−6 M) in absence or in presence of VEGF165. Cell number was determined at 24 hours after stimulation. The p-RB, was evaluated by western blot 12 and 18 hours after stimulation with QK (10^−6 M), VEGF165 and VEGF 15 (10^−6 M).
# [3] = target: VEGF receptors on bovine aorta endothelial cell (BAEC) membranes; assay: displacement of [125I]-VEGF from BAEC membranes (1 ug membrane protein) by QK at 10^-13 to 10^-8 M, gamma counter
# T2 sequence (A0AAA9SPC9 20-1356): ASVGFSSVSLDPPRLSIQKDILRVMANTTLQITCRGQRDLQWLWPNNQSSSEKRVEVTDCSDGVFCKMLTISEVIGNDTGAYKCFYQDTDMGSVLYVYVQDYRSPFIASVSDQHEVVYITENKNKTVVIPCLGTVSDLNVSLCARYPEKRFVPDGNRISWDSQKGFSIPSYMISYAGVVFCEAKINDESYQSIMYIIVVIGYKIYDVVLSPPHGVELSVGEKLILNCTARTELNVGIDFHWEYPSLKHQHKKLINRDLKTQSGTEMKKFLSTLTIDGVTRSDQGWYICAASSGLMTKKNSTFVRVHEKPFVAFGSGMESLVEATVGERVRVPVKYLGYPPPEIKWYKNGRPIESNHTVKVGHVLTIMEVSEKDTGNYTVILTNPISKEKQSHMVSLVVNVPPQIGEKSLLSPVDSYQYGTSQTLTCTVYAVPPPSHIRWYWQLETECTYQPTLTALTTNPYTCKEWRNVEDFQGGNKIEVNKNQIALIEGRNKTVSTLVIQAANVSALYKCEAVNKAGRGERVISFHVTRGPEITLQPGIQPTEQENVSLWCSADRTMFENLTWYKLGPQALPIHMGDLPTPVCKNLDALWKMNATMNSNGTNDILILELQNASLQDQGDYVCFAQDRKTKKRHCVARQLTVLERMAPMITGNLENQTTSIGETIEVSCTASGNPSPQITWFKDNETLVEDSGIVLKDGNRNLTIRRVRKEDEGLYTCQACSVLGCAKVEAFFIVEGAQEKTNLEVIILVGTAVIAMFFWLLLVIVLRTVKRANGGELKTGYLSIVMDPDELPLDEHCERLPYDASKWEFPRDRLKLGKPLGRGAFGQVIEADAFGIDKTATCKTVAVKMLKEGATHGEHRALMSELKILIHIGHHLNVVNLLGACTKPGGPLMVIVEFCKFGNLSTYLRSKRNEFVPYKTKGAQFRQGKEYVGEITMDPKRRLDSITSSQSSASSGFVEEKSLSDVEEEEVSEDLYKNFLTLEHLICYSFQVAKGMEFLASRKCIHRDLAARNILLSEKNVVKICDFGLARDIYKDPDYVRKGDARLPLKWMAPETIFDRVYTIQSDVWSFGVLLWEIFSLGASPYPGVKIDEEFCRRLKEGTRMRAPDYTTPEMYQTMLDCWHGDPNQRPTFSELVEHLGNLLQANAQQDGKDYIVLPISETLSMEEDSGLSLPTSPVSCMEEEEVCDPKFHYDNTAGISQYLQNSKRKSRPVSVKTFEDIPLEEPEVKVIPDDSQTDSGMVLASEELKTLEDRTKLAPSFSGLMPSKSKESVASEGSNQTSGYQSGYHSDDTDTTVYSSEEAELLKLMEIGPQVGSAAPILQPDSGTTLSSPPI
molecule,measurement,setting,value
KLTWMELYQLKYKGI (KLTWMELYQLKYKGI-NH2) [MK],effect on VEGF anti-apoptotic activity (caspase 3),HUVEC [1],partially inhibited the effect of the growth factor
KLTWMELYQLAYKGI (KLTWMELYQLAYKGI-NH2) [MA],binding to HUVEC cells,"HUVEC cells; fluorescein-conjugated peptide, FACS",specifically bound to the cells in a dose-dependent manner
same,levels of phosphorylated ERK1/2 kinase with VEGF in the presence of peptide,ERK1/2 kinase,highly reduced
same,annexin V+ cells,HUVEC [2],> 22%
same,effect on VEGF anti-apoptotic activity (caspase 3),HUVEC [1],abolished
"VEGF165: Vascular Endothelial Growth Factor, most abundant isoform, 45 KDa glycoprotein (Alexis), positive control in Example 1",Flt-1 phosphorylation,Flt-1,increases Flt-1 phosphorylation
same,phospho-KDR levels,KDR,caused the reduction in the levels of phospho-KDR at the membrane
same,BEADS Ischemic to non ischemic,"WKY rats; dyed beads dilution, muscle ratio, infusion 10^-7 M",0.97 ± 0.12
same,ANGIOGRAPHY Number of TFC,"WKY rats; ischemic hindlimb, chronic intrafemoral artery infusion 10^-7 M",18 ± 2
same,phosphorylation of the cyclin RB,RB,enhanced phosphorylation of the cyclin RB
Ac-KLTWQELYQLKYKGI-NH2 [QK peptide (SEQ ID No.8)],Kd,[3],0.316 nM
"human recombinant VEGF: Human recombinant VEGF obtained from R&D, used in Example 2 on HUVEC (protein) APMAEGGGQNHHEVVKFMDVYQRSYCHPIETLVDIFQEYPDEIEYIFKPSCVPLMRCGGCCNDEGLECVPTEESNITMQIMRIKPHQGQHIGEMSFLQHNKCECRPKKDRARQENPCGPCSERRKHLFVQDPQTCKCSCKNTDSRCKARQLELNERTCRCDKPRR",competition with fluorescein-conjugated MA peptide on HUVEC,"HUVEC cells; 500 nM MA peptide, increasing amount of VEGF, 4° C.",appeared to compete with MA peptide

# — patent US20090305994A1, “Compounds Modulating Vegf Receptor and Uses Thereof” (priority 2005, published 2009)
